What was measured:
α-syn [1] = target: T1, α-syn (Homo sapiens, UniProt P37840); test: SDS-PAGE of soluble α-syn left in supernatant after fibrillation; format: biochemical; settings: SDS-PAGE after centrifugation of fibrillated samples
T1 construct: made in house; host or cells: Escherichia coli BL21 (DE3), plasmid pET11-D
Experimental: Overall, there was a reasonable but not perfect correspondence between SDS-PAGE and ThT data.
To determine the amount of soluble α-syn, fibrillated samples were centrifuged (13,000 rpm, 15 min) and the supernatants were loaded on Bis–Tris 15% acrylamide gel with prestained protein ladder (Thermo Scientific) and run in a Bis–Tris running buffer at 150 V for 70 min, stained for 20 min in Coomassie brilliant blue (1.2 mM Coomassie brilliant blue, 5% ethanol, and 7% acetic acid), and destained overnight in a destaining solution (5% ethanol and 5% acetic acid). Gel bands were quantified using ImageJ.

α-syn [2] = target: T1, α-syn; test: ThT fluorescence assay of unseeded α-syn fibrillation in the presence of peptides; format: biochemical; settings: 1 mg/ml α-syn, 0–0.5 mg/ml peptide, 48 h
Experimental: To test the effects of these selected nine peptides on the aggregation of α-syn, we performed a thioflavin T (ThT) fluorescence assay in the presence of 1 mg/ml α-syn and 0 to 0.5 mg/ml peptide for 48 h (raw data in Fig. S3). Furthermore, the peptides alone were monitored for self-fibrillation. […] High concentrations of p222, p194, and p249 led to a decline in ThT fluorescence after reaching a plateau, possibly because of the formation of insoluble amorphous species. We also carried out seeding experiments by adding 5% sonicated preaggregated α-syn fibrils to the ThT assay.
About 150 μl of 70 μM (1 mg/ml) α-syn, 40 μM ThT, and varying amounts of peptides (0, 0.06, 0.125, 0. 25, 0.375, and 0.5 mg/ml) were transferred in triplicates to a black COSTAR 96-well clear bottom plate (Nunc, Thermo Fisher Scientific), and including a 3 mm diameter glass bead (Glaswarenfabrik Karl Hecht GmbH & Co KG) per well to increase reproducibility ([100]). The plate was sealed with Crystal Clear sealing tape (Hampton Research) and incubated at 37 °C in a CLARIOstar Plus (BMG LABTECH) fluorescence plate reader. Fibrillation was carried out for ∼48 h with 300 rpm double orbital shaking between the readings for 372 s (excitation/emission: 448∕485 nm). Seeding experiments were performed using the same setting as for the fibrillation assay as described ([39]). Briefly, the experiments were done in triplicates in the presence of 0.05 mg/ml of α-syn fibril seeds (5% seeding) and 1 mg/ml of peptides in a solution of 1 mg/ml α-syn in 96-well plates.

αSOs = target: T2, αSOs (Homo sapiens, UniProt P37840); test: Calcein release assay, αSOs together with peptides; format: biochemical; settings: αSOs at calcein^50% (5.2 μg/ml)
T2 construct: made in house; host or cells: Escherichia coli BL21 (DE3); oligomers formed by shaking the monomer and isolated by SEC (Superose 6)
Experimental: (§1) αSOs show cytotoxic properties, which have been attributed to their membrane-disrupting ability ([69]). To examine the effect of peptides on membrane permeabilization by αSOs, we used a simple calcein release assay. αSOs, peptides, and aSO–peptide mixtures at 10^−6 to 10^−1 mg/ml peptide were added to calcein-loaded DOPG vesicle, and the extent of calcein release was monitored for 30 min by the increase in fluorescence as calcein leaks out upon membrane permeabilization, leading to dilution and the loss of self-quenching. The time-dependent calcein release data from DOPG vesicles ([70], [71]) in the presence of peptides, αSOs, and αSO–peptides are shown in Figs. S9 and S10. In order to allow easy comparison of all peptides, the calcein release versus concentration (peptides and αSOs) were plotted at the plateau point of release (Fig. 5, A–C). […] Figure 5D compares calcein release percentages of data represented in Figure 5, A and B at peptide concentrations between 0.001 and 0.1 mg/ml, where we see the largest extent of calcein release in general.
(§2) Calcein-filled vesicles of DOPG were prepared as described before ([38]). Briefly, DOPG was dissolved in PBS to […], in the presence of calcein at self-quenching concentrations (70 mM) and subjected to 10 freeze–thaw cycles between liquid nitrogen and a 50 °C water bath. After 21 times extrusion through a 100 nm filter, free calcein was separated from vesicles with a PD-10 desalting column (GE Healthcare). Vesicles were stored at 4 °C and used for calcein release assays within 24 h.
(§3) Calcein release was measured by mixing peptides and/or αSOs at a final concentration of 10^−6 to 10^−1 mg/ml and 5.2 μg/ml, respectively, in 148 μl with 2 μl of calcein vesicles, and were then loaded onto a 96-well plate (Nunc, Thermo Fischer Scientific) in triplicate. The plate was sealed with Crystal clear sealing tape (Hampton Research), and fluorescence was measured (excitation: 485 nm and emission: 520 nm) for 1 h at 37 °C every 2 min with a 2 s autoshake before each reading on a fluorescence plate reader (Tecan). Finally, 2 μl Triton X-100 (0.2% [v/v]) was added to lyse vesicles, and the maximal fluorescence signal was measured for 20 min under the same reading condition. Background fluorescence was subtracted, and the average signal of calcein release before addition of Triton X-100 (F), after treatment with Triton X-100 (Ft) and for the buffer control (F0) were determined, and calcein release percentage was calculated as follow (Equation 1):(1) CalceinRelease%(CR%)=(F−F0)/(Ft−F0)

[3] = Calcein release assay, substance alone; settings: for Permeabilization of lipid vesicles by peptide alone: calcein-loaded DOPG vesicles, 10^−6 to 10^−1 mg/ml peptide, 37 °C, triplicate
Experimental: as §1, §2, §3

α-syn [4] = target: T1, α-syn; test: ATR–FTIR of fibrillated α-syn–peptide samples; format: biochemical; settings: for ATR–FTIR (amyloid structures): fibrillated samples after washing, versus α-syn alone; for Amount of amyloid structures (ATR–FTIR), in words: fibrillated α-syn samples in the presence of peptides
From the text: (§4) To analyze the secondary structure of the final aggregates, we recorded far-UV CD and attenuated total reflectance (ATR)–FTIR spectra for fibrillated samples after washing to remove free α-syn and peptides. […] Overall, as the concentration of peptides increases, the intensity of signal at 218 nm decreases (Fig. 4A). We observed that α-syn fibrils formed in the presence of p194, p222, p235, and p249 precipitated rapidly after mixing with these peptides. This likely gives rise to light scattering, which reduces CD signals. To overcome these artifacts, we turned to ATR–FTIR spectroscopy, which is not sensitive to scattering. […] Both far-UV CD and ATR–FTIR spectroscopy confirm extensive β-sheet structure. However, in the presence of peptides, some structural changes were observed as reflected by the decrease in the amyloid cross β-sheet structure at ∼1629 cm^−1 and increases in the random and coil structures (∼1656 and ∼1676 cm^−1, respectively) (Table 2). […] Taking all together, ATR–FTIR data are in reasonable agreement with far-UV CD.
The samples prepared in the CD section were also used to measure FTIR spectra on a Tensor 27 FTIR spectrophotometer (Bruker). About 2 μl α-syn fibrils were dried on the ATR crystal with a gentle stream of nitrogen gas. Spectra were accumulations of 68 scans in the 4000 to 1000 cm^−1 range. Baseline correlation, second derivative, and atmospheric compensation were performed with OPUS 5.5 software (Bruker, Germany). Signals in the amide I region (∼1550–1700 cm^−1) were smoothed and deconvoluted with PeakFit, version 4.12 software (ِSystat Software Inc) using Lorentzian fitting.

α-syn [5] = target: T1, α-syn; test: TEM of α-syn aggregates formed with peptides; format: biochemical; settings: α-syn incubated in the presence of peptide
Experimental: Five microliters of each fibril-containing solution were applied to 400-mesh carbon-coated and glow-discharged nickel grids for 30 s, and blotted with filter paper to remove excess sample. The grids were washed with one drop of double distilled water and then stained with 3 μl of 1% uranyl formate for 15 s. Excess stain was removed by blotting paper This step was repeated two more times. Finally, the grids were left to air dry and viewed on a Tecnai G2 Spirit (FEI Company) operating at 60 kV, and images were taken using a TemCam F416 camera (TVIPS).

α-syn [6] = target: T1, α-syn; test: Far-UV CD of fibrillated α-syn–peptide samples; format: biochemical; settings: fibrillated samples after washing, signal at 218 nm; versus α-syn alone
From the text: as §4
To remove free α-syn and peptides, fibrillated samples were centrifuged (13,000 rpm, 15 min). This leaves monomeric α-syn plus unbound and free peptides in the supernatant. The supernatant was discarded, and the pellet was washed two times in the same volume of PBS buffer, pH 7.4, to ensure complete removal of monomeric α-syn and free peptides. Far-UV CD spectra were recorded at 25 °C on a Chirascan CD Spectrophotometer (Applied Photophysics) using a 0.1 mm quartz cuvette in the wavelength range of 200 to 260 nm with 1 nm bandwidth and three accumulations. The buffer spectrum was subtracted, and the results were expressed as mean residue ellipticity [θ] (deg cm^2 dmol^−1).

Aβ = settings: cited from earlier work
From the text: Penetratin is a widely used CPP. Translocation of full-length and N-terminal truncated ([82]) penetratin has been observed in all cell types, and it is also able to cross the blood–brain barrier (BBB) ([83]). Its mechanism of translocation in live cells is complex and involves structural changes from random coil to α-helix ([84]) and transient formation of tubes or inverted micelles in the membrane that entrap the peptide in its interior. […]. The presence of Trp and net positively charged amino acid residues are important for formation of inverted ...

| Substance | Amount of soluble α-syn monomer left in the supernatant, in words (α-syn [1]) | Effect on α-syn aggregation (ThT), in words (α-syn [2]) | Effect on vesicle permeabilization by αSOs (αSOs; peptide 10^−6 to 10^−1 mg/ml) | Permeabilization of lipid vesicles by peptide alone [3] | ATR–FTIR (amyloid structures) (α-syn [4]) | Amount of amyloid structures (ATR–FTIR), in words (α-syn [4]) | Morphology of α-syn aggregates (TEM), in words (α-syn [5]) | Far-UV CD (β-sheet structures) (α-syn [6]) | ThT signal end level (α-syn [2]; unseeded ThT, 37 °C, versus α-syn alone) | Effect on vesicle permeabilization by αSOs (αSOs; peptide 0.1 mg/ml) | Peptide concentration from which membrane toxicity is shown ([3]; peptide alone, calcein-filled DOPG LUVs, tested range 10^−1–10^−6 mg/ml) | Inhibition of amyloid aggregate formation (Aβ fibrillation) (Aβ) |
| --- | --- | --- | --- | --- | --- | --- | --- | --- | --- | --- | --- | --- |
| KEGVVAAAEKTKQG [p12] | do not affect the amount of monomer left in the supernatant | did not change the lag phase duration | failed to affect vesicle permeabilization by αSOs | did not permeabilize lipid vesicles | ↓ amyl | did not show significant changes in FTIR spectra | did not cause any significant change in morphology | ↓β |  |  |  |  |
| MKGLSKAKEGVVAA [p5] | do not affect the amount of monomer left in the supernatant | did not change the lag phase duration | failed to affect vesicle permeabilization by αSOs | did not permeabilize lipid vesicles | ↓ amyl | slightly decreased the amount of amyloid | did not cause any significant change in morphology | ↓β |  |  |  |  |
| RQIKIWFQARRMKWKK [p194, Ala scan variant of penetratin] |  | inhibitory effect |  |  | ↓↓↓ amyl | decreased | nonfibrillar (amorphous) accumulations | ↓↓↓β | ↓↓ | increased vesicle permeabilization by αSOs | > 10^−2 mg/ml |  |
| RQIKIWFQNRRMLWLXaa [pAntp] |  |  |  |  |  |  |  |  |  |  |  | particularly effective inhibitors |
| RQILIWFQNRRMLWLL [pAntp-BSB1] |  |  |  |  |  |  |  |  |  |  |  | particularly effective inhibitors |
| SASDSRTFKSSGG [p162] | do not affect the amount of monomer left in the supernatant | did not change the lag phase duration | failed to affect vesicle permeabilization by αSOs | did not permeabilize lipid vesicles |  | slightly decreased the amount of amyloid | did not cause any significant change in morphology | ↓β |  |  |  |  |
